Test results from publication PMC4072787 (PLoS Pathogens, 2014).
Entries after “also recorded” stand apart in the source; their conditions may differ. Like-named read-outs stand apart in the source and are kept apart here.

Experiments:
in vitro [1] = conditions: African green monkey
VEEV TC-83 [2] = test: microbe, parasite or virus in culture; format: cell-based; conditions: Venezuelan equine encephalitis virus, Vero 76, read-out: IC50 against TC-83 1º
VEEV TC-83 [3] = test: microbe, parasite or virus in culture; format: cell-based; conditions: Venezuelan equine encephalitis virus, Vero 76
VEEV V3526 = test: microbe, parasite or virus in culture; format: cell-based; conditions: Venezuelan equine encephalitis virus
VEEV TC-83 [4] = test: microbe, parasite or virus in culture; format: cell-based; conditions: Venezuelan equine encephalitis virus
VEEV TC-83 [5] = conditions: mouse, in vivo; cited from earlier work
VSV-EGFP = test: microbe, parasite or virus in culture; format: cell-based, vesicular stomatitis virus
[6] = 16 hr.
VACV-LREV = test: microbe, parasite or virus in culture; format: cell-based, vaccinia virus (western reserve)
VEEV TC-83 proteins = format: cell-based, Venezuelan equine encephalitis virus
[7] = microsomes
in vitro [8] = conditions: mouse; for fraction unbound: plasma
in vitro [9] = conditions: PAMPA
VEEV TrD [10] = test: microbe, parasite or virus in culture; format: cell-based; conditions: Venezuelan equine encephalitis virus
Ebola virus (Zaire)-GFP = test: microbe, parasite or virus in culture; format: cell-based
VEEV TC-83 [11] = format: cell-based, Venezuelan equine encephalitis virus
VEEV TC-83 [12] = format: cell-based, Venezuelan equine encephalitis virus; remark: listed apart in the source
[13] = mouse, in vivo
in vitro [14] = conditions: dog, MDCK-MDR1
MDR1 = test: in vitro; conditions: dog, MDCK-MDR1
VEEV TC-83 [15] = format: cell-based, Venezuelan equine encephalitis virus; remark: listed apart in the source
VEEV TrD [16] = format: cell-based, Venezuelan equine encephalitis virus
RSV (strain Long) = test: microbe, parasite or virus in culture; format: cell-based, human respiratory syncytial virus
VEEV TC-83 RNA = format: cell-based, Venezuelan equine encephalitis virus
EEEV strain FL91 = test: microbe, parasite or virus in culture; format: cell-based, Eastern equine encephalitis virus
WEEV (VR-70) = test: microbe, parasite or virus in culture; format: cell-based; conditions: Western equine encephalitis virus, Vero, 72 h, read-out: Antiviral Activity (IC50), WEEV
in vitro [17] = conditions: microsomes
in vitro [18] = conditions: mouse, plasma
in vivo = conditions: mouse, ip
CHIKV = test: microbe, parasite or virus in culture; format: cell-based, Chikungunya virus
[19] = Vero 76, read-out: IC50 against TC-83 2º

With `Clc1ccc2nnnc(-c3ccccc3)c2c1` [compound 902491] the CC50 (in vitro [1]) was > 25 µM, the IC50 (VEEV TC-83 [2]) was 9.71 µM and the inhibition at 20 µM (VEEV TC-83 [3]) was 42.1%. The IC50 (VEEV V3526; read-out: IC50 against V3526) was 6.12 µM and the IC50 (VEEV TC-83 [4]; [19]) was 3.45 µM.
With `O=C(Cc1cccs1)Nc1nc2c(s1)CCCC2` [compound 847035] the CC50 (in vitro [1]) was > 25 µM, the IC50 (VEEV TC-83 [2]) was 6.38 µM and the inhibition at 20 µM (VEEV TC-83 [3]) was 27.8%. It also gave an IC50 (VEEV V3526; read-out: IC50 against V3526) of 7.09 µM and an IC50 (VEEV TC-83 [4]; [19]) of 4.71 µM.
In the case of `CCOC(=O)c1ccc(Nc2nc(=O)c3cccnc3s2)cc1` [compound 1259240], the CC50 (in vitro [1]) is reported as > 25 µM, the IC50 (VEEV TC-83 [2]) is reported as 6.32 µM and the inhibition at 20 µM (VEEV TC-83 [3]) is reported as 49%. For the same compound, the IC50 (VEEV V3526; read-out: IC50 against V3526) was 10.8 µM and the IC50 (VEEV TC-83 [4]; [19]) was 7.07 µM.
In the case of (−)-carbodine, the Survival (VEEV TC-83 [5]) is given as 50%.
For `CCN1CCN(Cc2nc3ccc([N+](=O)[O-])cc3c(=O)n2-c2ccccc2F)CC1` [CID15997213], the “Antiviral Activity (IC50), VSV-EGFP” value (VSV-EGFP) was “No antiviral activity”, the IC50 (VSV-EGFP; Vesicular stomatitis virus, A549, 18 h, read-out: Antiviral Activity (IC50), VSV-EGFP) was > 20 µM and the Aqueous solubility [6] was >100 µM. For the same compound, the “Antiviral Activity (IC50), VACV-LREV” value (VACV-LREV) was “No antiviral activity”, the IC50 (VACV-LREV; Vaccinia virus Western Reserve, A549, 18 h, read-out: Antiviral Activity (IC50), VACV-LREV) was > 20 µM and the “Viral protein level (western blot)” value (VEEV TC-83 proteins) was “dramatic decrease in viral protein level; also recorded: not able to detect viral proteins”. For the same compound, the microsomal stability [7] was “good”, the recovery (in vitro [8]) was 89% and the fraction unbound (in vitro [8]; Mean plasma fraction bound) was 0.324. It also gave a fraction unbound (in vitro [8]; Mean plasma fraction unbound) of 0.324, a fraction unbound (in vitro [8]; protein binding) of 0.68 and a Papp (in vitro [9]) of 42 ×10⁻⁶ cm/s. It also gave an IC50 (VEEV TrD [10]; N2a, read-out: Antiviral Activity (IC50), VEEV TrD) of 0.48 µM, an IC50 (VEEV TrD [10]; Vero 76, read-out: Antiviral Activity (IC50), VEEV TrD) of 0.38 µM and an IC50 (VEEV TrD [10]; read-out: IC50, VEEV TrD) of 0.36 to 0.48 µM. For the same compound, the “Antiviral Activity (IC50), Ebola virus (Zaire)-GFP” value (Ebola virus (Zaire)-GFP) was “No antiviral activity”, the IC50 (Ebola virus (Zaire)-GFP; Zaire ebolavirus, HeLa, 24 h, read-out: Antiviral Activity (IC50), Ebola virus (Zaire)-GFP) was > 10 µM and the “Progeny virus in titer reduction assay” value (VEEV TC-83 [11]) was “No progeny virus was detected”. The “Virus production still occurring, of the maximum” value (VEEV TC-83 [12]) was 90%, the “Acute toxicity, clinical signs” value [13] was “no acute toxicity” and the “Toxicity (body weight loss, adverse effects)” value [13] was “No apparent toxicity”. It also gave a Papp A→B (in vitro [14]) of 7.2 ×10⁻⁶ cm/s, a Papp B→A (in vitro [14]) of 38.5 ×10⁻⁶ cm/s and an efflux ratio (MDR1) of 5.3. The Plaque formation (VEEV TC-83 [15]) was “no visible plaques”, the “Progeny virus in titer reduction assay” value (VEEV TrD [16]) was “No progeny virus was detected” and the “Antiviral Activity (IC50), RSV” value (RSV (strain Long)) was “No antiviral activity”. For the same compound, the IC50 (RSV (strain Long); human respiratory syncytial virus, HEp-2, 120 h, read-out: Antiviral Activity (IC50), RSV) was > 50 µM, the CC50 (in vitro [1]) was > 25 µM and the “Reduction in viral RNA levels as compared to the control” value (VEEV TC-83 RNA) was > 8,000 fold. The “Antiviral Activity (IC50), EEEV” value (EEEV strain FL91) was “no activity”, the IC50 (EEEV strain FL91; Eastern equine encephalitis virus, Vero, 40 h, read-out: Antiviral Activity (IC50), EEEV) was > 20 µM and the IC50 (VEEV TC-83 [2]) was 1.91 µM. For the same compound, the IC50 (WEEV (VR-70)) was 10 µM, the inhibition at 20 µM (VEEV TC-83 [3]) was 73% and the microsomal CLint (in vitro [17]) was 31.4 µL/min/mg. For the same compound, the half-life (in vitro [18]) was > 4 h, the MTD (in vivo) was ≥ 800 mg/kg and the “Antiviral Activity (IC50), CHIKV” value (CHIKV) was “not inhibited”. The IC50 (CHIKV; Chikungunya virus, 72 h, read-out: Antiviral Activity (IC50), CHIKV) was > 50 µM, the solubility (physchem) was > 100 µM and the IC50 (VEEV V3526; read-out: Antiviral Activity (IC50), VEEV V3526) was 0.67 µM. It also gave an IC50 (VEEV V3526; read-out: IC50, V3526) of 0.32 µM, an IC50 (VEEV V3526; read-out: IC50 against V3526) of 1.01 µM and an IC50 (VEEV TC-83 [4]; [19]) of 1.3 µM. The IC50 (VEEV TC-83 [4]; read-out: IC50, VEEV TC-83) was 0.84 µM.
For `O=c1nc(Nc2ccc(OCc3ccccc3)cc2)sc2ncccc12` [compound 1258664], the CC50 (in vitro [1]) was > 25 µM, the IC50 (VEEV TC-83 [2]) was 2.86 µM and the inhibition at 20 µM (VEEV TC-83 [3]) was 63.2%. For the same compound, the IC50 (VEEV V3526; read-out: IC50 against V3526) was 3.67 µM and the IC50 (VEEV TC-83 [4]; [19]) was 2.38 µM.
For `O=C(Oc1ccc2ccccc2c1Br)N1CCCCCC1` [compound 2928803], the CC50 (in vitro [1]) was > 25 µM, the IC50 (VEEV TC-83 [2]) was 4.26 µM and the inhibition at 20 µM (VEEV TC-83 [3]) was 42.8%. For the same compound, the IC50 (VEEV V3526; read-out: IC50 against V3526) was > 50 µM and the IC50 (VEEV TC-83 [4]; [19]) was > 50 µM.
